According to patent US20200147069A1, “Compounds for The Reduction of The Deleterious Activity of Extended Nucleotide Repeat Containing Genes” (The Board of Trustees of the Leland Stanford Junior …, priority 2017, published 2020):

What was measured:
[1] = biological target: T1, interaction between Supt4h and NGN (Homo sapiens, UniProt O00267+P63272); assay: Split Gaussia luciferase complementation assay (M2-8 cells); format: cell-based; conditions: for IC50: M2-8 cells, 24 hr, concentration at which signal was reduced to 50% of untreated
T1 construct: expressed in transfected cells
Protocol: i: pNBR-X1-Supt4-Gluc1 and pNEBR-X1-NGN-Gluc2 The HA-Supt4h and Flag-NGN fragments are amplified by PCR using the plasmid pHA-Supt4h-YC and pFlag-NGN-YN and sub-cloned individually into pcDNA3.1-Gluc1 and pcDNA3.1-Gluc2 (described in “A highly sensitive protein-protein interaction assay based on Gausssia luciferase” published at Nat Methods. 2006 December; 3(12):977-9. Epub 2006 Nov. 12). Then HA-Supt4h-Gluc1 and Flag-NGN-Gluc2 are amplified by PCR and inserted to pNEBR-X1-Hygro (New England BioLabs), which contain RheoSwitch responsive element under the control of RheoSwitch ligand.
PCR products containing the sequence from 5XRE to polyA in pNEBR-X1-NGN-G2 are inserted to pNEBR-X1-Supt4h-G1 at PciI site to generate Supt4h-G1 and NGN-G2 bidirectional under their own RheoSwitch responsive element and polyA in the same plasmid.
i: 293-R^1 is a cloned cell which is engineered to constitutively express RSL1 receptor/activator by transfecting HEK 293 cells with pNEBR-R^1 plasmid (New England BioLabs) and selected with Blasticidin.
ii: M2-8 is a cloned 293-R^1 cell which can inducibly express pNEBR-X1-Supt4h-G1-NGN-G2 by addition of RSL1. Two point mutations (M431 and M1101) are introduced to the GL1 and GL2 for better stability according to “A high-throughput cell-based Gaussia luciferase reporter assay for identifying modulators of fibulin-3 secretion” published on J Biomol Screen. 2013 July; 18(6):647-58. The cell line is selected by Hygromycin.
All the HEK-293 cells and derivative cell clones are maintained in DMEM containing 10% FBS plus corresponding antibiotics (250 μg/ml hygromycin B, 10 μg/ml blasticidin or both) at 37° C., 5% CO2. All the transfections are done by using lifpofectamine 2000 (Invitrogen) according to the manufacture's direction.
Plasmids harboring the Gluc1 and Gluc2 are co-transfected in a 1:1 ratio into 293-R^1 cells plated on tissue culture treated 24-well plates using Lipofectamine 2000 according to the manufacturer's instruction. For stable cell M2-8, the cells are plated into 96 well or 384 well white plate directly. 24 hours later, RheoSwitch ligand together with/without test compound is added to the cells for induction/drug treatment. After 24 hr, the cells are washed with PBS and the plate was put in −20° C. freezer for overnight. After taking out the plate from freezer, lysis buffer (30 mM Tris-HCl, pH 8.0, 5 mM NaCl, 0.1% Triton X-100) with 10 μg/ml native coelenterazine (Nanolight Technology) is immediately added to the cells. The cells are lysed at room temperature for one hour in dark. After shaking for about 1 min, 40 μl of cell lysate are transferred to a white 96 well plate. For M2-8 in white micro plate, no transfer is needed. Signal intensities (integrated 100 ms) were read on Tecan Infinite M200 or M1000.
The bioluminescence signal of Gaussia Luciferase from untreated M2-8 cells was set as 100% and the IC50 of the compound was defined as the compound concentration at which the signal intensity was reduced to 50%.
The split Gaussia luciferase complementation assay measures the interaction between Sup4h and NGN. NGN is the subunit of Supt5h that binds to Supt4h. […] Therefore, administration of Compound 1 results in decreased production of mutant proteins encoded by genes that include mutant nucleotide repeats.

mutant HTT protein = assay: Mutant HTT activity assay in induced pluripotent stem cells (iPSC); format: cell-based, human; conditions: iPSCs derived from a Huntington's disease patient, 24 hr, Western blot normalized by tubulin
Protocol: FIG. 1A-1B. iPSCs were treated with Compound 1 at different doses for 24 hr. The cells were collected and lysed for protein quantification. Equal amounts of protein were applied on SDS-PAGE gel for Western Blotting. Mutant HTT protein was recognized by polyQ antibody (MAB1574 from Millipore) while wild type HTT protein was blotted by anti-Huntingtin antibody (MAB2166 from Millipore) (FIG. 1A). Both proteins were scanned and quantified by Li-Cor Odyssey and normalized by tubulin (FIG. 1B).
Huntington disease patient iPSCs (ND36999 from Coriell Institute) were detached into single cells by Accutase (AT104 from Accutase) and plated on a 24-well plate coated with Matrigel (354277 from Corning). […] The protein concentrations were determined by BCA assay (Pierce, ThermoFisher). […] The protein level of mutant HTT, total HTT and tubulin were determined by immunoblotting with anti-poly Glutamine (MAB1574 from Millipore), anti-Huntingtin protein (MAB2166 from Millipore) and anti-alpha tubulin (AJ1034a from ABGENT). […] The band intensities were determined by Li-Cor Odyssey software.
Using the protocol reported above, iPSCs were treated with Compound 1 at various doses for 24 hr. The cells were collected and lysed for protein quantification. […] Both proteins were scanned and quantified by Li-Cor Odyssey and normalized by tubulin.

Gmr-Htt97Q/+ HD flies = assay: Eye morphology (rough eye) analysis in Drosophila HD model; format: in vivo, Drosophila melanogaster; conditions: 100 μM in media
Protocol: FIG. 2A. The morphology of compound eye was analyzed in fruit flies treated with or without Compound 1. […] To quantify the appearance of “rough eye” in Gmr-Htt97Q/+ treated with 10 and 100 μM of Compound 1, ten flies were randomly picked from each group and the number of flies with “rough eye” phenotype were determined under microscope. Compared to untreated group, the relative percentage of HD flies with “rough eye” phenotype in treated groups is shown (right panel). Data are presented as mean±SD (N=3; **, p<0.01 by student's t test).
(§1) The Drosophila melanogaster (fruit fly) HD models used in this set of experiments carry the coding sequence of human Htt exon1 with 97 CAG repeats to mimic mutant Httof Huntington's disease (HD). The Gmr::Htt97Q fly, expressing mutant Htt primarily in the neurons of Drosophila compound eyes, has a severe degeneration of photoreceptor neurons and the phenotypic trait ‘rough eye’. The elav::Htt97Q fly expresses the mutant protein specifically in neuroblasts and glial cells in the Drosophila embryonic CNS, resulting in a substantially negative impact on eclosion. All of the fly stocks and genetics crosses were maintained at 25° C. on standard cornmeal yeast agar media. […]

elav::Htt97Q HD flies = assay: Eclosion rate analysis in Drosophila HD model; format: in vivo, Drosophila melanogaster
Protocol: FIG. 2B. HD fly (elav::Htt97Q) eclosion rate was measured in the presence or absence of Compound 1 treatment. 100 newly hatched flies, generated from crossing of male (elav-gal4/cyo) and female (UAS-Htt97Q/UAS-Htt97Q) flies, were collected at […]. The eclosion rate was determined by the number of HD-flies (elav::Htt97Q) vs. the number of non HD-flies (cyo::Htt97Q) (N=3; *, p<0.05 by student's t test).
as §1, with “eclosion.” for “eclosion. All of the fly stocks and genetics crosses were maintained at 25° C. on standard cornmeal yeast agar media.”
A group of 15 male flies (elav-gal4/cyo) and 15 virgin-female (UAS-Htt97Q/UAS-Htt97Q) flies were cultured in a vial that contains standard yeast agar media without or with Compound 1. […] The eclosion rate is determined by the number of HD-flies vs. the number of non HD-flies in a total of 100 collected flies in each experimental condition. […]

HD flies = assay: Fly viability; format: in vivo, Drosophila melanogaster; conditions: dose that alleviated phenotypic defects

| Structure (SMILES) | IC50 [1] | further results |
| --- | --- | --- |
| Cc1ccc2[nH]c3c(c2c1)CCCC3NCc1ccccc1 (stereo not drawn) | < 1000 nM | – |
| O=C(NC1CCCc2c1[nH]c1ccc(Cl)cc21)c1ccccn1 (stereo not drawn) | < 1000 nM | – |
| CC(C)Oc1ccc2[nH]c3c(c2c1)CCCC3NCCc1ccccc1 (stereo not drawn) | > 1000 nM | – |
| CC(C)Oc1ccc2[nH]c3c(c2c1)CCCC3NC1CCCC1 (stereo not drawn) | > 1000 nM | – |
| CC(C)NC1CCCc2c1[nH]c1ccc(OC(C)C)cc21 (stereo not drawn) | > 1000 nM | – |
| CC(C)NC1CCCc2c1[nH]c1ccc(Br)cc21 (stereo not drawn) | < 1000 nM | – |
| Brc1ccc2[nH]c3c(c2c1)CCCC3NC1CCCC1 (stereo not drawn) | < 1000 nM | – |
| CCN1CCC(NC2CCCc3c2[nH]c2ccccc32)CC1 (stereo not drawn) | > 1000 nM | – |
| Cc1ccc2[nH]c3c(c2c1)CCCC3NCc1ccc(F)cc1 (stereo not drawn) | < 1000 nM | – |
| Brc1ccc2[nH]c3c(c2c1)CCCC3NCc1ccccc1 (stereo not drawn) [Compound 1] | – | interaction between Sup4h and NGN ([1]; split Gaussia assay): interrupts the interaction between Sup4h and NGN; mutant HTT protein level (mutant HTT protein): decreases mutant HTT protein; incidence of rough eye phenotype (Gmr-Htt97Q/+ HD flies): 70% of the untreated group; eclosion rate (elav::Htt97Q HD flies): relatively low eclosion rate was reversed; fly viability (HD flies): did not affect fly viability |
| Brc1ccc2[nH]c3c(c2c1)CCCC3NCc1ccccc1 (stereo not drawn) [drawing 40] | < 1000 nM | – |
